From PubChem BioAssay AID1919009 (Molecular Pharmacology Branch, DTP, NCI, 2023)

Test system: K24384-001-R-PDC complex spheroid growth
Test: Anticancer human tumor K24384-001-R-PDC patient-derived pancreatic adenocarcinoma cell line growth inhibition [AhR]
Settings: for IC50: curve of first compound; for viability, T/C: stronger effect = lower value
Method in brief: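 Agents were dosed in half-log steps down from roughly clinical Cmax, or from 10 microM where Cmax was unknown, alone and with AhR antagonists. Read-out: percent test/control growth of tumor spheroids containing HUVEC and MSC stromal cells.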

[1] = second compound 0.1 µM, first compound 0.0316 µM
[2] = second compound 0.1 µM, first compound 0.1 µM
[3] = second compound 0.1 µM, first compound 0.316 µM
[4] = second compound 0.1 µM, first compound 1 µM
[5] = second compound 0.1 µM, first compound 3.16 µM
[6] = second compound 0.1 µM, first compound 10 µM
[7] = second compound 0.316 µM, first compound 0.0316 µM
[8] = second compound 0.316 µM, first compound 0.1 µM
[9] = second compound 0.316 µM, first compound 0.316 µM
[10] = second compound 0.316 µM, first compound 1 µM
[11] = second compound 0.316 µM, first compound 3.16 µM
[12] = second compound 0.316 µM, first compound 10 µM
[13] = second compound 1 µM, first compound 0.0316 µM
[14] = second compound 1 µM, first compound 0.1 µM
[15] = second compound 1 µM, first compound 0.316 µM
[16] = second compound 1 µM, first compound 1 µM
[17] = second compound 1 µM, first compound 3.16 µM
[18] = second compound 1 µM, first compound 10 µM
[19] = second compound 3.16 µM, first compound 0.0316 µM
[20] = second compound 3.16 µM, first compound 0.1 µM
[21] = second compound 3.16 µM, first compound 0.316 µM
[22] = second compound 3.16 µM, first compound 1 µM
[23] = second compound 3.16 µM, first compound 3.16 µM
[24] = second compound 3.16 µM, first compound 10 µM
[25] = second compound 10 µM, first compound 0.0316 µM
[26] = second compound 10 µM, first compound 0.1 µM
[27] = second compound 10 µM, first compound 0.316 µM
[28] = second compound 10 µM, first compound 1 µM
[29] = second compound 10 µM, first compound 3.16 µM
[30] = second compound 10 µM, first compound 10 µM
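For viability, T/C in this document: percent of DMSO vehicle-treated spheroid viability set as 100%.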

COc1cc(Nc2ncc3c(n2)-c2ccc(Cl)cc2C(c2c(F)cccc2OC)=NC3)ccc1C(=O)O + Cc1cncc(-c2nc(NCCc3c[nH]c4ccccc34)c3ncn(C(C)C)c3n2)c1
IC50 (second compound 0.1 µM): 943 nM
IC50 (second compound 0.316 µM): 2150 nM
IC50 (second compound 1 µM): > 10000 nM
IC50 (second compound 3.16 µM): 10000 nM
IC50 (second compound 10 µM): < 31.6 nM
viability, T/C [1]: 81.9%
viability, T/C [2]: 70.1%
viability, T/C [3]: 69.6%
viability, T/C [4]: 43.9%
viability, T/C [5]: 53.1%
viability, T/C [6]: 49.9%
viability, T/C [7]: 95%
viability, T/C [8]: 66.4%
viability, T/C [9]: 68%
viability, T/C [10]: 41.1%
viability, T/C [11]: 53.4%
viability, T/C [12]: 47.7%
viability, T/C [13]: 85.3%
viability, T/C [14]: 82.7%
viability, T/C [15]: 75.2%
viability, T/C [16]: 63%
viability, T/C [17]: 50.3%
viability, T/C [18]: 51.5%
viability, T/C [19]: 80.5%
viability, T/C [20]: 77.2%
viability, T/C [21]: 72.8%
viability, T/C [22]: 44.8%
viability, T/C [23]: 58.6%
viability, T/C [24]: 62.1%
viability, T/C [25]: 11.1%
viability, T/C [26]: 11.8%
viability, T/C [27]: 10.3%
viability, T/C [28]: 9.55%
viability, T/C [29]: 9.44%
viability, T/C [30]: 17%

NS(=O)(=O)OCC1CC(n2ccc3c(NC4CCc5ccccc54)ncnc32)CC1O (stereo not given) + Cc1cncc(-c2nc(NCCc3c[nH]c4ccccc34)c3ncn(C(C)C)c3n2)c1
IC50 (second compound 0.1 µM): 2330 nM
IC50 (second compound 0.316 µM): 2320 nM
IC50 (second compound 1 µM): 2370 nM
IC50 (second compound 3.16 µM): 1510 nM
IC50 (second compound 10 µM): < 31.6 nM
viability, T/C [1]: 130%
viability, T/C [2]: 150%
viability, T/C [3]: 67.3%
viability, T/C [4]: 107%
viability, T/C [5]: 29.7%
viability, T/C [6]: 29.1%
viability, T/C [7]: 141%
viability, T/C [8]: 161%
viability, T/C [9]: 56.1%
viability, T/C [10]: 124%
viability, T/C [11]: 24%
viability, T/C [12]: 23.6%
viability, T/C [13]: 167%
viability, T/C [14]: 154%
viability, T/C [15]: 62%
viability, T/C [16]: 84.6%
viability, T/C [17]: 27.9%
viability, T/C [18]: 27%
viability, T/C [19]: 132%
viability, T/C [20]: 153%
viability, T/C [21]: 59.8%
viability, T/C [22]: 86.4%
viability, T/C [23]: 20.4%
viability, T/C [24]: 20.6%
viability, T/C [25]: 27.1%
viability, T/C [26]: 15.2%
viability, T/C [27]: 10.5%
viability, T/C [28]: 11.1%
viability, T/C [29]: 5.02%
viability, T/C [30]: 5.87%

O=C(C=Cc1cccc(S(=O)(=O)Nc2ccccc2)c1)NO + Cc1cncc(-c2nc(NCCc3c[nH]c4ccccc34)c3ncn(C(C)C)c3n2)c1
IC50 (second compound 0.1 µM): 1840 nM
IC50 (second compound 0.316 µM): 2110 nM
IC50 (second compound 1 µM): 2350 nM
IC50 (second compound 3.16 µM): 2320 nM
IC50 (second compound 10 µM): < 31.6 nM
viability, T/C [1]: 107%
viability, T/C [2]: 120%
viability, T/C [3]: 108%
viability, T/C [4]: 74.5%
viability, T/C [5]: 28.2%
viability, T/C [6]: 4.88%
viability, T/C [7]: 139%
viability, T/C [8]: 138%
viability, T/C [9]: 135%
viability, T/C [10]: 87.9%
viability, T/C [11]: 30.3%
viability, T/C [12]: 4.55%
viability, T/C [13]: 129%
viability, T/C [14]: 141%
viability, T/C [15]: 145%
viability, T/C [16]: 85.6%
viability, T/C [17]: 41.1%
viability, T/C [18]: 5.39%
viability, T/C [19]: 118%
viability, T/C [20]: 118%
viability, T/C [21]: 111%
viability, T/C [22]: 75.2%
viability, T/C [23]: 41.9%
viability, T/C [24]: 6.54%
viability, T/C [25]: 28.9%
viability, T/C [26]: 20.4%
viability, T/C [27]: 17.7%
viability, T/C [28]: 9.39%
viability, T/C [29]: 10.3%
viability, T/C [30]: 2.79%
